Experimental data taken from ChEMBL document CHEMBL4354815, “Fibrinolysis Inhibitors: Potential Drugs for the Treatment and Prevention of Bleeding” (J Med Chem, 2020).
Where a SMILES comes first, the peptide text is derived from it. [ ]: non-standard residue; d: D form. Met(O2) = CS(=O)(=O)CC[C@H](N)C(=O)O

Columns and labels:
[1] = biological target: T1, Tissue-type plasminogen activator (Homo sapiens, UniProt P00750); experiment: Inhibition of tissue-type plasminogen activator (unknown origin)
T1 sequence (P00750 whole entry): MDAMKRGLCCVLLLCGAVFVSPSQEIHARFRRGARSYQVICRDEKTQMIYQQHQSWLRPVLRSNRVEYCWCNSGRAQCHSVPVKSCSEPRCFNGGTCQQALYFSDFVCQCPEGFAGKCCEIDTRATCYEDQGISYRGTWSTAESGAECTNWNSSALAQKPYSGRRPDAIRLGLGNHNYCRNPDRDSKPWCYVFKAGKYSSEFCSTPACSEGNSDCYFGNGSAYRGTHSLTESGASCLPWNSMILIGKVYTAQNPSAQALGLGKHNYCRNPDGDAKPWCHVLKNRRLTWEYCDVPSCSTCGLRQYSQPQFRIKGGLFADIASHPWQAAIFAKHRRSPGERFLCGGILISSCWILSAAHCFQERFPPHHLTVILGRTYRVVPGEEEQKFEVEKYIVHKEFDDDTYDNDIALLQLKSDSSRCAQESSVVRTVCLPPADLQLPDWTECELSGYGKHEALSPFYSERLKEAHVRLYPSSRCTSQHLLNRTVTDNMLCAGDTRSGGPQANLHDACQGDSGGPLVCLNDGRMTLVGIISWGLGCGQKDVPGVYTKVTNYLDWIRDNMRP

Plasminogen [2] = biological target: T2, Plasminogen (Homo sapiens, UniProt P00747); experiment: Inhibition of plasmin (unknown origin)
[3] = biological target: T3, Urokinase-type plasminogen activator (Homo sapiens, UniProt P00749); experiment: Inhibition of urokinase-type plasminogen activator (unknown origin)
Plasminogen [4] = biological target: T2, Plasminogen; experiment: Inhibition of human plasmin assessed as reduction in proteolysis activity in presence of fibrinogen after 90 mins by SDS-PAGE analysis
Plasminogen [5] = biological target: T2, Plasminogen; experiment: Competitive inhibition of human plasmin assessed as reduction in hydrolytic activity using S-2251 as substrate by spectrophotometric method
[6] = Half life in rat, iv; assay type: ADME; conditions: in vivo
[7] = Half life in dog, iv; assay type: ADME, Canis lupus familiaris; conditions: in vivo
[8] = Plasma concentration in human at 0.219 mg/kg/h by liquid chromatography-tandem mass spectrometry; assay type: ADME, organism-based; conditions: in vivo
Blood = experiment: Anti-fibrinolytic activity in human whole blood assessed as reduction in clot lysis incubated for 5 mins in presence of tissue-type plasminogen activator by rotational thromboelastometry; assay type: functional, tissue-based
Plasminogen [9] = biological target: T2, Plasminogen; experiment: Inhibition of human plasmin assessed as reduction in fibrinolysis
Plasminogen [10] = biological target: T2, Plasminogen; experiment: Inhibition of plasmin (unknown origin) assessed as reduction in amidolytic activity using S-2251 as the substrate after 4 mins
Plasminogen [11] = biological target: T2, Plasminogen; experiment: Inhibition of human plasmin
Plasminogen [12] = biological target: T2, Plasminogen; experiment: Inhibition of human plasmin using S-2251 as substrate after 30 mins by spectrophotometric method
Plasminogen [13] = biological target: T2, Plasminogen; experiment: Inhibition of human plasmin assessed as km using S-2251 as the substrate
Plasminogen [14] = biological target: T2, Plasminogen; experiment: Inhibition of plasmin (unknown origin) using D-Val-Leu-Lys-p-nitroanilide as substrate
[15] = Drug level in human serum at 100 mg/kg, iv measured after 3 to 4 hrs; assay type: ADME, organism-based; conditions: in vivo
[16] = Plasma concentration in human at 100 mg/kg, po measured within 2 to 3 hrs; assay type: ADME, organism-based; conditions: in vivo
[17] = Initial serum concentration in human at 100 mg/kg, iv; assay type: ADME, organism-based
[18] = Half life in human; assay type: ADME
Prothrombin [19] = biological target: T4, Prothrombin (Homo sapiens, UniProt P00734); experiment: Inhibition of thrombin (unknown origin) assessed as reduction in hydrolysis activity preincubated for 10 mins followed by spectrozyme TH
Coagulation factor X [20] = biological target: T5, Coagulation factor X (Homo sapiens, UniProt P00742); experiment: Inhibition of human factor 10a (unknown origin) assessed as reduction in hydrolysis activity preincubated for 10 mins followed by spectrozyme FXa
T5 sequence (P00742 41-179 limits assumed): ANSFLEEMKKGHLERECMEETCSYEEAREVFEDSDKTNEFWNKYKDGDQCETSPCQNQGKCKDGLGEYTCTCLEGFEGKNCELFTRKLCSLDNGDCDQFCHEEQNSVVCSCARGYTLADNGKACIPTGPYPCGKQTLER
T5 sequence (P00742 235-488 limits assumed): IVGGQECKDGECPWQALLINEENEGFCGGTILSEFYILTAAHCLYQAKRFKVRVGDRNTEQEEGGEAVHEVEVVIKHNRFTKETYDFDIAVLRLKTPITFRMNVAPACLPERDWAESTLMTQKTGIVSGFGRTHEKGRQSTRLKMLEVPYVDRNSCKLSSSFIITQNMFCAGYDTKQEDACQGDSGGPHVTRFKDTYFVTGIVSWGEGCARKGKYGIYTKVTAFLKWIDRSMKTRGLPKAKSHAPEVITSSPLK

[21] = biological target: T3, Urokinase-type plasminogen activator; experiment: Inhibition of human urokinase-type plasminogen activator using S-2444 as substrate
[22] = biological target: Vitamin K-dependent protein C (Homo sapiens, UniProt P04070); experiment: Inhibition of human activated protein […] C using H-D-Lys(Cbo)-Pro-Arg-pNA as substrate
Chain of Vitamin K-dependent protein C (P04070 43-197 limits assumed): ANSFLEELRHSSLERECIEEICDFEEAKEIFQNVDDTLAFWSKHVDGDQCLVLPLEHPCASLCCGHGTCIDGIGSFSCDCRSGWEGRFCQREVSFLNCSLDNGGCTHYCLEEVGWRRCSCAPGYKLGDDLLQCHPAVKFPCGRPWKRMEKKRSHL
Chain of Vitamin K-dependent protein C (P04070 212-461 limits assumed): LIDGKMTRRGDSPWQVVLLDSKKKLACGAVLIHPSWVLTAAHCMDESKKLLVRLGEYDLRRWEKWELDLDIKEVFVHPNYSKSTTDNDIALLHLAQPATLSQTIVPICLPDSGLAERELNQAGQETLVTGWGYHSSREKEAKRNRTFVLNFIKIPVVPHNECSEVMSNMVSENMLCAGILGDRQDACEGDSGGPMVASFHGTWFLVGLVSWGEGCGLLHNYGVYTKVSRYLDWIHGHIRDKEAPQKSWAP

Coagulation factor XII = biological target: T6, Coagulation factor XII (Homo sapiens, UniProt P00748); experiment: Inhibition of human factor 12a using CHA-Gly-Arg- pNA as substrate
T6 sequence (P00748 whole entry): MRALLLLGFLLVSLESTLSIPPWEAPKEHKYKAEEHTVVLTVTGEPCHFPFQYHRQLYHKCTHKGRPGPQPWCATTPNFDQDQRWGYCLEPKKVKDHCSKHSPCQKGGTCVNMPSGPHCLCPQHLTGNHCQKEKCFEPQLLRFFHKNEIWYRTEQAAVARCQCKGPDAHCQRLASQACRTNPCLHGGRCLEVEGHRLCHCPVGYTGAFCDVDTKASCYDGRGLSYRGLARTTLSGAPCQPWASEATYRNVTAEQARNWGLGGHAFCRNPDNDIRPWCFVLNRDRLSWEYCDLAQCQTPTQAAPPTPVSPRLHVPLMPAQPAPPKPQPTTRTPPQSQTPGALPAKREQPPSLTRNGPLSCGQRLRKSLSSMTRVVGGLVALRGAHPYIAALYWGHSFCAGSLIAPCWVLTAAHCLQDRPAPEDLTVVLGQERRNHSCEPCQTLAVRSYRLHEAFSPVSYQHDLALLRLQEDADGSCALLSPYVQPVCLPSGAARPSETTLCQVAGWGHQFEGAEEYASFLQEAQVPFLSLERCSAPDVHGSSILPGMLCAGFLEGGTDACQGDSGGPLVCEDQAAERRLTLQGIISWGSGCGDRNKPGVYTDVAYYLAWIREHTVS

[23] = Inhibition of human urinary kallikrein using H-D-Val-Leu-Arg-pNA as substrate
[24] = biological target: T1, Tissue-type plasminogen activator; experiment: Inhibition of human tissue-type plasminogen activator using Mes-d-Cha- Gly-Arg-pNA as substrate
[25] = biological target: T7, Complement C1s subcomponent (Homo sapiens, UniProt P09871); experiment: Inhibition of human Complement C1s subcomponent using Val-Ser-Arg-pNA as substrate
T7 sequence (P09871 whole entry): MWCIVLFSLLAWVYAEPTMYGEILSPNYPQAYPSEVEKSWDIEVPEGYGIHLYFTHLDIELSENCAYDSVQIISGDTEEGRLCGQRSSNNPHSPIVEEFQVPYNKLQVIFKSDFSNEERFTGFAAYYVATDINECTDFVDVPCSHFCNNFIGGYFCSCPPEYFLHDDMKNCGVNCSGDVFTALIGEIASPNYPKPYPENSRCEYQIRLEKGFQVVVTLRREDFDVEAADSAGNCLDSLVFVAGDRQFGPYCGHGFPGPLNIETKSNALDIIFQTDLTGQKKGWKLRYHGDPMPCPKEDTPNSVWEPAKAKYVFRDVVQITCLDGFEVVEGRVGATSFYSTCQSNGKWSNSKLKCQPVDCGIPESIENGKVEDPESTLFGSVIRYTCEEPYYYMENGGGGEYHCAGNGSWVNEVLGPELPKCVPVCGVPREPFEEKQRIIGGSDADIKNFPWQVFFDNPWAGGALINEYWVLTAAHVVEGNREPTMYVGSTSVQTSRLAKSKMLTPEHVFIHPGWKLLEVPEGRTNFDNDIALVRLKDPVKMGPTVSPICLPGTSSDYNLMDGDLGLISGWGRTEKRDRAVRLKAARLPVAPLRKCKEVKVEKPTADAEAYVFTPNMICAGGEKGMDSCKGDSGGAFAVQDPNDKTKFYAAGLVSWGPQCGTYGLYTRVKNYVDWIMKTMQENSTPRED

Coagulation factor X [26] = biological target: T5, Coagulation factor X; experiment: Inhibition of human factor 10a using MeOCO-d-Cha-Gly-Arg-pNA as substrate
Coagulation factor XI = Coagulation factor XI (Homo sapiens, UniProt P03951); experiment: Inhibition of human factor 11a using H-D-Lys(Cbo)-Pro-Arg-pNA as substrate
Chain of Coagulation factor XI (P03951 19-387 limits assumed): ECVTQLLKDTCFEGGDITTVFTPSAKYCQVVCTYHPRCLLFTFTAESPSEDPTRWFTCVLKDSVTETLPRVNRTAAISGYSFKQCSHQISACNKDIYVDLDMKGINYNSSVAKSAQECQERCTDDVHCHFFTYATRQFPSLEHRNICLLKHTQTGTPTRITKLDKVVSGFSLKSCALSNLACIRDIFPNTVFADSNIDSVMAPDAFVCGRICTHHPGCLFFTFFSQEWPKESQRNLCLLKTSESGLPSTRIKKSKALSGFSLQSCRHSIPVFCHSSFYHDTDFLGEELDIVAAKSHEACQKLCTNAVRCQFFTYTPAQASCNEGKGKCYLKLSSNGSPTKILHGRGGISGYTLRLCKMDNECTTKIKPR
Chain of Coagulation factor XI (P03951 388-625 limits assumed): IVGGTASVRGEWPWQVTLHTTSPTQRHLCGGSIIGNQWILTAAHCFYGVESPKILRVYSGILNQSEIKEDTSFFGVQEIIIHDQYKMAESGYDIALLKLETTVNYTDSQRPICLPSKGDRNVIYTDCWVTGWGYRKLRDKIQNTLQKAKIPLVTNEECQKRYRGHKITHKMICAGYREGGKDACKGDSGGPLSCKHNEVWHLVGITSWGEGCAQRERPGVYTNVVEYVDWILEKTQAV

[27] = biological target: T8, Complement C1r subcomponent (Homo sapiens, UniProt P00736); experiment: Inhibition of human Complement C1r subcomponent using Val-Ser-Arg-pNA as substrate
T8 sequence (P00736 whole entry): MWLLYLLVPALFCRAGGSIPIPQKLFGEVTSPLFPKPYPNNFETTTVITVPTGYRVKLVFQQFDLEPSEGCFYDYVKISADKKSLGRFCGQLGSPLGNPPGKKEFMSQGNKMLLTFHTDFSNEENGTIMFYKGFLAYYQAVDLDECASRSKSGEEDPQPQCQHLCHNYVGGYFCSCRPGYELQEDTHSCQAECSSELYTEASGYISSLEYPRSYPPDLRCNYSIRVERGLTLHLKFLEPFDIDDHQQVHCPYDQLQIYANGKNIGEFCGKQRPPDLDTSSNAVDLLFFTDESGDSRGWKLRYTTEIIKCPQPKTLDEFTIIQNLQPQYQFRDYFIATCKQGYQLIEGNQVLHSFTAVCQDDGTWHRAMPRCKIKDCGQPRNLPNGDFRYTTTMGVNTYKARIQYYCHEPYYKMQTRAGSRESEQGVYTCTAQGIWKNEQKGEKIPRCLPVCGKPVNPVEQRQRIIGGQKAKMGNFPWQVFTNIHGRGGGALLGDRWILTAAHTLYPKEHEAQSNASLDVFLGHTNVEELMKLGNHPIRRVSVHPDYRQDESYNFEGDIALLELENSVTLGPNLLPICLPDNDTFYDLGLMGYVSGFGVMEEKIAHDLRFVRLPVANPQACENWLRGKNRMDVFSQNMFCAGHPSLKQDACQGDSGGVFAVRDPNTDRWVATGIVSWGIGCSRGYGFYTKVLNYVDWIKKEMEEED

Prothrombin [28] = biological target: T4, Prothrombin; experiment: Inhibition of human factor 2a using Mes-d-Cha-Gly-Arg-pNA as substrate
[29] = compound: CC[C@@H](C)[C@@H](N)C(=O)N[C@@H](Cc1ccccc1)C(=O)N[C@@H](CCCCN)C(=O)Nc1ccc([N+](=O)[O-])cc1; experiment: (§1) Inhibition of human plasmin assessed as km by Lineweaver-burk method
[30] = compound: NCCCC[C@H](NC(=O)[C@H](Cc1ccccc1)NC(=O)[C@@H]1CCC(=O)N1)C(=O)Nc1ccc([N+](=O)[O-])cc1; experiment: as §1

N=C(N)c1ccc(CNC(=O)[C@@H]2CCN2C(=O)[C@H](NCC(=O)O)C2CCCCC2)cc1
Ki [1]: 900 nM
Ki (Plasminogen [2]): 700 nM
Ki [3]: 6.3 µM

CC(=O)N[C@@H](CCCCN)C(=O)N[C@@H](CCS(C)(=O)=O)C(=O)N[C@@H](Cc1ccc(O)cc1)C(=O)N[C@H](C=O)CCCNC(=N)N (Ac-K[Met(O2)]YR-aldehyde)
Ki (Plasminogen [4]): 3.3 nM

CCOC(=O)c1ccc(OC(=O)CCCCCNC(=N)N)cc1 [GABEXATE]
Ki (Plasminogen [5]): 1900 nM

N=C(N)c1ccc(CNC(=O)[C@H](Cc2cccc(CN)c2)NC(=O)[C@@H](CCCc2ccccc2)NS(=O)(=O)Cc2cccc(C(=O)O)c2)cc1
half-life [6]: 20 min
half-life [7]: 20 min
concentration [8]: 900 nM
IC50 (Blood): 150 nM

NCCCC[C@H](NC(=O)[C@H]1CC[C@H](CN)CC1)C(=O)Nc1ccc(C(=O)c2ccccc2)cc1
IC50 (Plasminogen [9]): 6.1 µM
IC50 (Plasminogen [10]): 15 µM

N=C(N)c1cccc(C[C@H](NS(=O)(=O)c2ccc3ccccc3c2)C(=O)N2CCCC(C(=O)NCc3cccs3)C2)c1 (some centres undefined)
Ki (Plasminogen [11]): 140 nM

N=C(N)Nc1ccc(C(=O)Oc2ccc(S(N)(=O)=O)cc2)cc1
Ki (Plasminogen [12]): 310 nM

CC[C@@H](C)[C@@H](N)C(=O)N[C@@H](Cc1ccccc1)C(=O)N[C@@H](CCCCN)C(=O)Nc1ccc([N+](=O)[O-])cc1
Km (Plasminogen [13]): 30 µM

O=C(CCC1CCCC(NC(=O)[C@H](Cc2c[nH]c3ccccc23)NC(=O)OCc2ccccc2)C1=O)N[C@@H](Cc1c[nH]c2ccccc12)C(=O)O (mixture of isomers)
Ki (Plasminogen [14]): 5 to 10 µM

NCCCCCC(=O)O [AMINOCAPROIC ACID]
Drug uptake [15]: 0.035 mg/mL
Cp [16]: 300 mg/L
C0 [17]: 1500 µg/mL
half-life [18]: 80 min

O=c1c(OS(=O)(=O)O)c(-c2ccc(OS(=O)(=O)O)c(OS(=O)(=O)O)c2)oc2cc(OS(=O)(=O)O)cc(OCc3cn(CCCCCCCCn4c(-c5ccc(OS(=O)(=O)O)cc5)nc5ccccc5c4=O)nn3)c12
IC50 (Prothrombin [19]): > 500 µM
IC50 (Coagulation factor X [20]): > 250 µM

NC[C@H]1CC[C@H](C(=O)O)CC1 [TRANEXAMIC ACID]
Ki [21]: 2 mM
IC50 (Blood): 2750 nM

N=C(N)c1ccc(CNC(=O)[C@H](CCC2CCNCC2)NC(=O)[C@@H](CCCc2ccccc2)NS(=O)(=O)Cc2ccccc2)cc1
Ki [22]: > 130 nM
Ki (Coagulation factor XII): > 130 nM
Ki [23]: > 130 nM
Ki [24]: > 130 nM
Ki [25]: > 130 nM
Ki (Coagulation factor X [26]): > 130 nM
Ki (Coagulation factor XI): > 130 nM
Ki [27]: > 130 nM
Ki (Prothrombin [28]): > 130 nM

B1: Plasminogen (Homo sapiens), P00747 (protein)
chain: MEHKEVVLLLLLFLKSGQGEPLDDYVNTQGASLFSVTKKQLGAGSIEECAAKCEEDEEFTCRAFQYHSKEQQCVIMAENRKSSIIIRMRDVVLFEKKVYLSECKTGNGKNYRGTMSKTKNGITCQKWSSTSPHRPRFSPATHPSEGLEENYCRNPDNDPQGPWCYTTDPEKRYDYCDILECEEECMHCSGENYDGKISKTMSGLECQAWDSQSPHAHGYIPSKFPNKNLKKNYCRNPDRELRPWCFTTDPNKRWELCDIPRCTTPPPSSGPTYQCLKGTGENYRGNVAVTVSGHTCQHWSAQTPHTHNRTPENFPCKNLDENYCRNPDGKRAPWCHTTNSQVRWEYCKIPSCDSSPVSTEQLAPTAPPELTPVVQDCYHGDGQSYRGTSSTTTTGKKCQSWSSMTPHRHQKTPENYPNAGLTMNYCRNPDADKGPWCFTTDPSVRWEYCNLKKCSGTEASVVAPPPVVLLPDVETPSEEDCMFGNGKGYRGKRATTVTGTPCQDWAAQEPHRHSIFTPETNPRAGLEKNYCRNPDGDVGGPWCYTTNPRKLYDYCDVPQCAAPSFDCGKPQVEPKKCPGRVVGGCVAHPHSWPWQVSLRTRFGMHFCGGTLISPEWVLTAAHCLEKSPRPSSYKVILGAHQEVNLEPHVQEIEVSRLFLEPTRKDIALLKLSSPAVITDKVIPACLPSPNYVVADRTECFITGWGETQGTFGAGLLKEAQLPVIENKVCNRYEFLNGRVQSTELCAGHLAGGTDSCQGDSGGPLVCFEKDKYILQGVTSWGLGCARPNKPGVYVRVSRFVTWIEGVMRNN
Km [29]: 20 µM
Km [30]: 300 µM
